Laboratory results published in ChEMBL document CHEMBL6103585, “Construction and activity evaluation of novel CHS inhibitors against fungal infections” (Eur J Med Chem, 2025).
Values after ≈ are worked out from the molar mass of the structure shown. Active and inactive are the calls of the source. The calls are words filed in the database; no cut-off is given here.

Columns and labels:
Candida albicans [1] = assay: In vivo antifungal activity against Candida albicans 901 infected in mouse model assessed as decrease in IFN-gamma protein expression level at 5 microg/g, iv pre-infected with fungi by intravenous injection followed by compound administration and measured on day 8 by Western blotting analysis; format: functional, organism-based; settings: dose 5.0 µg/g, time 8.0 day
Candida albicans [2] = assay: In vivo antifungal activity against Candida albicans 901 infected in mouse model assessed as decrease in IL-2 protein expression level at 5 microg/g, iv pre-infected with fungi by intravenous injection followed by compound administration and measured on day 8 by Western blotting analysis; format: functional, organism-based; settings: dose 5.0 µg/g, time 8.0 day
Candida albicans [3] = assay: In vivo antifungal activity against Candida albicans 901 infected in mouse model assessed as recovery of alveolar structures to normal state in lung at 5 microg/g, iv pre-infected with fungi by intravenous injection followed by compound administration and measured on day 8 in presence of BPE by H and E staining based analysis; format: functional, organism-based; settings: dose 5.0 µg/g, time 8.0 day
[4] = Binding affinity to chitin synthase (unknown origin) assessed as dissociation constant by SPR analysis
Candida albicans [5] = assay: In vivo antifungal activity against Candida albicans 901 infected in mouse model assessed as recovery of alveolar structures to normal state in lung at 5 microg/g, iv pre-infected with fungi by intravenous injection followed by compound administration and measured on day 8 in presence of 1-MT by H and E staining based analysis; format: functional, organism-based; settings: dose 5.0 µg/g, time 8.0 day
[6] = Toxicity in mouse infected with Candida albicans 901 assessed as change in CRE level in presence of 1-MT (reference value: 21.5 +/-1.7 umol/L); settings: in vivo
Candida albicans [7] = assay: Induction of apoptosis in Candida albicans ATCC SC5314 assessed as viable cells by V-FITC/PI staining based flow cytometric analysis (reference value: 93.3%); format: functional
Candida albicans [8] = assay: In vivo antifungal activity against Candida albicans 901 infected in mouse model assessed as body weight gain at 5 microg/g, iv pre-infected with fungi by intravenous injection followed by compound administration and measured on day 8 in presence of 1-MT; format: functional, organism-based; settings: dose 5.0 µg/g, time 8.0 day
Candida albicans [9] = assay: Fungicidal activity against Candida albicans ATCC SC5314 assessed as live cells (reference value: 92%); format: functional
[10] = Toxicity in mouse infected with Candida albicans 901 assessed as change in ALT level in presence of BPE (reference value: 42.8 +/-3.9 IU/L); settings: in vivo
Candida albicans [11] = assay: In vivo antifungal activity against Candida albicans 901 infected in mouse model assessed as body weight gain at 5 microg/g, iv pre-infected with fungi by intravenous injection followed by compound administration and measured on day 8; format: functional, organism-based; settings: dose 5.0 µg/g, time 8.0 day
Candida albicans [12] = assay: Induction of ROS generation in Candida albicans ATCC SC5314 assessed as increase in fluorescence intensity incubated for 12 hrs by fluorescence microscopic analysis; format: functional, organism-based
Candida albicans [13] = assay: Antifungal activity against fluconazole-resistant Candida albicans 904 assessed as reduction in fungal growth incubated for 72 hrs by broth microdilution method; format: functional
Candida albicans [14] = assay: In vivo antifungal activity against Candida albicans 901 infected in mouse model assessed as decrease in IDO protein expression level at 5 microg/g, iv pre-infected with fungi by intravenous injection followed by compound administration and measured on day 8 by Western blotting analysis; format: functional, organism-based; settings: dose 5.0 µg/g, time 8.0 day
Candida albicans [15] = assay: In vivo antifungal activity against Candida albicans 901 infected in mouse model assessed as decrease in IDO protein expression level at 5 microg/g, iv pre-infected with fungi by intravenous injection followed by compound administration and measured on day 8 in presence of 1-MT by Western blotting analysis; format: functional, organism-based; settings: dose 5.0 µg/g, time 8.0 day
Cryptococcus neoformans = assay: Antifungal activity against Cryptococcus neoformans ZKCC 2209 assessed as fungal growth inhibition incubated for 72 hrs by broth microdilution method; format: functional
[16] = Toxicity in mouse infected with Candida albicans 901 assessed as change in CRE level (reference value: 21.5 +/-1.7 umol/L); settings: in vivo
[17] = Toxicity in mouse infected with Candida albicans 901 assessed as change in AST level in presence of BPE (reference value: 76.1 +/-4.2 IU/L); settings: in vivo
Candida albicans [18] = assay: In vivo antifungal activity against Candida albicans 901 infected in mouse model assessed as decrease in IL-2 protein expression level at 5 microg/g, iv pre-infected with fungi by intravenous injection followed by compound administration and measured on day 8 in presence of BPE by Western blotting analysis; format: functional, organism-based; settings: dose 5.0 µg/g, time 8.0 day
Aspergillus fumigatus = assay: Antifungal activity against Aspergillus fumigatus KM 8001 assessed as fungal growth inhibition incubated for 72 hrs by broth microdilution method; format: functional
Candida albicans [19] = assay: Antifungal activity against fluconazole-resistant Candida albicans 901 assessed as reduction in fungal growth incubated for 72 hrs by broth microdilution method; format: functional
Candida albicans [20] = assay: In vivo antifungal activity against Candida albicans 901 infected in mouse model assessed as decrease in IFN-gamma protein expression level at 5 microg/g, iv pre-infected with fungi by intravenous injection followed by compound administration and measured on day 8 in presence of BPE by Western blotting analysis; format: functional, organism-based; settings: dose 5.0 µg/g, time 8.0 day
Candida albicans [21] = assay: In vivo antifungal activity against Candida albicans 901 infected in mouse model assessed as decrease in IFN-gamma protein expression level at 5 microg/g, iv pre-infected with fungi by intravenous injection followed by compound administration and measured on day 8 in presence of 1-MT by Western blotting analysis; format: functional, organism-based; settings: dose 5.0 µg/g, time 8.0 day
Candida albicans [22] = assay: In vivo antifungal activity against Candida albicans 901 infected in mouse model assessed as decrease in IDO protein expression level at 5 microg/g, iv pre-infected with fungi by intravenous injection followed by compound administration and measured on day 8 in presence of BPE by Western blotting analysis; format: functional, organism-based; settings: dose 5.0 µg/g, time 8.0 day
[23] = Toxicity in mouse infected with Candida albicans 901 assessed as change in BUN level in presence of 1-MT (reference value: 11.4 +/-1.5 mmol/L); settings: in vivo
Candida albicans [24] = assay: Induction of apoptosis in Candida albicans ATCC SC5314 assessed as early apoptotic cells by V-FITC/PI staining based flow cytometric analysis (reference value: 3.51%); format: functional
Candida albicans [25] = assay: In vivo antifungal activity against Candida albicans 901 infected in mouse model assessed as increase in CD4positive expression level in presence of 1-MT; format: functional, organism-based
[26] = Toxicity in mouse infected with Candida albicans 901 assessed as change in BUN level (reference value: 11.4 +/-1.5 mmol/L); settings: in vivo
[27] = Inhibition of chitin synthase extracted from Candida tropicalis ATCC 1369 using UDP-GlcNAc as substrate incubated for 1 hrs
Candida albicans [28] = assay: Fungicidal activity against Candida albicans ATCC SC5314 assessed as dead cells (reference value: 8%); format: functional
[29] = Toxicity in mouse infected with Candida albicans 901 assessed as change in AST level in presence of 1-MT (reference value: 76.1 +/-4.2 IU/L); settings: in vivo
Candida albicans [30] = assay: In vivo antifungal activity against Candida albicans 901 infected in mouse model assessed as decrease in PD-L1 protein expression level at 5 microg/g, iv pre-infected with fungi by intravenous injection followed by compound administration and measured on day 8 by Western blotting analysis; format: functional, organism-based; settings: dose 5.0 µg/g, time 8.0 day
A549 = assay: Cytotoxicity against human A549 cells incubated for 24 hrs by CCK8 assay; format: functional, cell-based; settings: A549, 24 h
Candida albicans [31] = assay: Antifungal activity against fluconazole-resistant Candida albicans 632 assessed as reduction in fungal growth incubated for 72 hrs by broth microdilution method; format: functional
Nakaseomyces glabratus = assay: Antifungal activity against Candida glabrata assessed as fungal growth inhibition incubated for 72 hrs by broth microdilution method; format: functional

## O=C(CNC(=O)c1nc2ccc(Cl)cc2c(=O)[nH]1)NCC(=O)c1ccccc1
Candida albicans [1]
  Activity: Active
Candida albicans [2]
  Activity: Active
Candida albicans [3]
  Activity: Active
[4]
  Kd: 0.00752 µM
Candida albicans [5]
  Activity: Active
[6]
  Activity: 20.8 µmol/L
Candida albicans [7]
  Activity: 57.1%
Candida albicans [8]
  Activity: Active
Candida albicans [9]
  Activity: 3%
[10]
  Activity: 43.6 IU/L
Candida albicans [11]
  Activity: Active
Candida albicans [12]
  Activity: Active
Candida albicans [13]
  MIC50: 4 µg/mL (≈ 10 µM)
Candida albicans [14]
  Activity: Active
Candida albicans [15]
  Activity: Active
Cryptococcus neoformans
  MIC50: 1 µg/mL (≈ 2.51 µM)
[16]
  Activity: 18.7 µmol/L
[17]
  Activity: 70.4 IU/L
Candida albicans [18]
  Activity: Active
Aspergillus fumigatus
  MIC50: 2 µg/mL (≈ 5.01 µM)
Candida albicans [19]
  MIC50: 4 µg/mL (≈ 10 µM)
Candida albicans [20]
  Activity: Active
Candida albicans [21]
  Activity: Active
Candida albicans [22]
  Activity: Active
[23]
  Activity: 10.3 mmol/L
Candida albicans [24]
  Activity: 14.9%
Candida albicans [25]
  Activity: Active
[26]
  Activity: 8.2 mmol/L
[27]
  IC50: 14.7 µM
Candida albicans [28]
  Activity: 97%
[29]
  Activity: 74.6 IU/L
Candida albicans [30]
  Activity: Active
A549
  IC50: > 50 µM
Candida albicans [31]
  MIC50: 2 µg/mL (≈ 5.01 µM)
Nakaseomyces glabratus
  MIC50: 2 µg/mL (≈ 5.01 µM)
